Data: US10766929B2, “De novo designed hemagglutinin binding proteins” (UNIVERSITY OF WASHINGTON, priority 2017, dated 2020)
Values after ≈ are worked out from the molar mass of the structure shown. Positions of bridges follow the written chain, without caps; N, C: chain ends. Residues, ends and D or L forms follow the SMILES beside them. No end group written: not given here.

Tests used:
[1] = test system: flu virus strains Ca0409 and Ft. Monmout; details: both strains
[2] = test system: CA09 influenza virus; assay type: cell-based, influenza virus (Madin-Darby Canine Kidney Epithelial Cells)
[3] = test system: A/California/04/09 (H1N1) (CA09); set-up: species or system BALB/c mice; details: mouse, in vivo
[4] = test system: Virus Ft. Monmouth
[5] = test system: H1N1 (CA09) influenza virus; set-up: species or system Ferrets; details: in vivo
[6] = test system: PR8 influenza virus; assay type: cell-based, influenza virus (Madin-Darby Canine Kidney Epithelial Cells)
[7] = test system: biotinylated HA proteins; assay type: physicochemical, influenza
[8] = test system: Virus Ca0409

| Molecule | IC50 against flu virus strains Ca0409 and Ft. Monmout [1] [ng/mL] | EC50 fold lower than FI6v3 and HB36.6 on a mass basis [2] | EC50 versus FI6v3 and HB36.6 on a molar basis [2] | dose fold lower on a mass basis than the FI6v3 dose required for equivalent protection [3] [fold] | survival [3] [%] | weight loss [3] [%] | protection ([3]; iv) | EC50 for inhibition of viral replication in vitro [4] [ng/mL] | changes in temperature [5] | clinical signs of disease [5] | weight loss [5] | EC50 fold lower than FI6v3 and HB36.6 on a mass basis [6] | EC50 versus FI6v3 and HB36.6 on a molar basis [6] | loss of binding activity after high temperature exposure [7] | EC50 for inhibition of viral replication in vitro [8] [ng/mL] |
| --- | --- | --- | --- | --- | --- | --- | --- | --- | --- | --- | --- | --- | --- | --- | --- |
| CC[C@H](C)[C@@H]1NC(=O)[C@H](CCC(=O)O)NC(=O)[C@H](C)NC(=O)[C@H](C)NC(=O)[C@H]([C@@H](C)O)NC(=O)[C@H](CCC(N)=O)NC(=O)[C@@H]2CSSC[C@H](NC(=O)[C@H](CC(N)=O)NC(=O)CNC(=O)[C@H](CC(N)=O)NC(=O)[C@H](CC(=O)O)NC(=O)[C@H](C(C)C)NC(=O)[C@H](CCSC)NC(=O)[C@H]([C@@H](C)CC)NC(=O)[C@H](CCCCN)NC(=O)[C@H](C(C)C)NC(=O)[C@H]([C@@H](C)O)NC(=O)[C@H](Cc3ccc(O)cc3)NC(=O)CNC(=O)[C@H](Cc3ccccc3)NC(=O)[C@H](C)NC(=O)[C@H](CCCNC(=N)N)NC(=O)[C@H](Cc3c[nH]c4ccccc34)NC1=O)C(=O)N[C@@H](CCCNC(=N)N)C(=O)N[C@@H](CC(C)C)C(=O)N[C@@H](Cc1c[nH]cn1)C(=O)N[C@@H](C(C)C)C(=O)N[C@H](C(=O)O)CSSC[C@H](N)C(=O)N[C@@H]([C@@H](C)CC)C(=O)N[C@@H](CCC(=O)O)C(=O)N[C@@H](CCC(N)=O)C(=O)N[C@@H](CO)C(=O)N[C@@H](Cc1ccccc1)C(=O)N[C@@H]([C@@H](C)O)C(=O)N[C@@H]([C@@H](C)O)C(=O)N[C@@H](CC(C)C)C(=O)N[C@@H](Cc1ccccc1)C(=O)N[C@@H](C)C(=O)N2 [HB1.6928.2.3] (H-CIEQSFTTLFACQTAAEIWRAFGYTVKIMVDNGNCRLHVC-OH; disulfide 1-40, 12-35; N-terminus and C-terminus assumed) | ~0.02 (≈ 0.00441 nM) | more than 100 fold | comparable | 100 | 100 | < 10 | little protection | 0.02 | no significant changes in temperature | minimal clinical signs of disease | no significant weight loss | more than 100 fold | comparable | no detectable loss of binding |  |
| CC[C@H](C)[C@@H]1NC(=O)[C@H](CCC(=O)O)NC(=O)[C@H](C)NC(=O)[C@H](C)NC(=O)[C@H]([C@@H](C)O)NC(=O)[C@H](CCC(N)=O)NC(=O)[C@H](C)NC(=O)[C@H](C)NC(=O)[C@H](Cc2ccccc2)NC(=O)[C@H](CC(C)C)NC(=O)[C@H]([C@@H](C)O)NC(=O)[C@H]([C@@H](C)O)NC(=O)[C@H](Cc2ccccc2)NC(=O)[C@H](CO)NC(=O)[C@H](CCC(N)=O)NC(=O)[C@H](CCC(=O)O)NC(=O)[C@H]([C@@H](C)CC)NC(=O)[C@@H](N)CSSC[C@@H](C(=O)O)NC(=O)[C@H](C(C)C)NC(=O)[C@H](Cc2c[nH]cn2)NC(=O)[C@H](CC(C)C)NC(=O)[C@H](CCCNC(=N)N)NC(=O)[C@H](Cc2c[nH]c3ccccc23)NC(=O)[C@H](CC(N)=O)NC(=O)CNC(=O)[C@H](CC(N)=O)NC(=O)[C@H](CC(=O)O)NC(=O)[C@H](CCC(N)=O)NC(=O)[C@H](CCSC)NC(=O)[C@H]([C@@H](C)CC)NC(=O)[C@H](CCCCN)NC(=O)[C@H](C(C)C)NC(=O)[C@H]([C@@H](C)O)NC(=O)[C@H](Cc2ccc(O)cc2)NC(=O)CNC(=O)[C@H](Cc2ccccc2)NC(=O)[C@H](C)NC(=O)[C@H](CCCNC(=N)N)NC(=O)[C@H](Cc2c[nH]c3ccccc23)NC1=O [AQW CS15989] (H-CIEQSFTTLFAAQTAAEIWRAFGYTVKIMQDNGNWRLHVC-OH; disulfide 1-40; N-terminus and C-terminus assumed) |  |  |  |  |  |  |  | 10 |  |  |  |  |  |  | 10 |
| TIEQSFTTLFAAQTAAEIWRAFGYTVKIMQDNGNWRLHVT [TAWQT CS15990] |  |  |  |  |  |  |  | 2 |  |  |  |  |  |  | 20 |
